How the values were obtained:
[1] = tested on: Staphylococcus aureus; experiment: Inhibition of bacteria in BkERF transformed B. kaoi cells; assay type: cell-based; settings: 6 days after infection, transformed B. kaoi cells overexpressing the gene
Source text: (§1) The BkERF1, BkERF2.1, and BkERF2.2 genes are SEQ ID NO. 3, SEQ ID NO. 1 and SEQ ID NO. 2 respectively. The coding region of BkERFs was cloned into the multiple cloning site of the binary vector under the CaMV 35S promoter and the nopaline synthase termination sequence. The resulting vector was introduced into the Agrobacterium tumefaciens which was introduced into the cells of B. kaoi. The B. kaoi cells overexpressed BkERFs genes were observed using Western blot.
(§2) Bacteria suspension of a concentration about 10^8 cfu/ml was made from bacteria cultured 1-2 days with culture medium, and inoculated to 0.2 g BkERF transformed calli then grown in a 25° C. incubator. After six days, the calli was homogenized in 10 mM magnesium sulfate. Serial dilution of the bacteria was prepared and spread on nutrient agar plate containing 50 mg/L rifampicin. The plates were put in a 28° C. incubator for two days and then the numbers of bacteria were calculated.

[2] = tested on: Psudomonas syringe; experiment: as above; assay type: cell-based; settings: 6 days after infection, transformed B. kaoi cells overexpressing the gene
Source text: as §1, §2

Substance	Growth of bacteria in the transformed cells (bacterial numbers) [1]	Growth of bacteria in the transformed cells (bacterial numbers) [2]
ERF2.2: B. kaoi ethylene response factor gene, ORF of 702 bp encoding 233 amino acids, overexpressed via binary vector	inhibited	inhibited
ERF1: B. kaoi ethylene response factor gene, ORF of 633 bp encoding 210 amino acids, overexpressed via binary vector	inhibited	inhibited
ERF2.1: B. kaoi ethylene response factor gene, ORF of 693 bp encoding 230 amino acids, overexpressed via binary vector	inhibited	inhibited
